Source: ChEMBL document CHEMBL1154952, “N1-Alkyl pyrimidinediones as non-nucleoside inhibitors of HIV-1 reverse transcriptase” (Bioorg Med Chem Lett, 2010)
Values after ≈ are worked out from the molar mass of the structure shown.

What was measured:
[1] = test system: Human immunodeficiency virus 1; test: Antiviral activity against HIV1 harboring reverse transcriptase Y181C mutant infected in human MT2 cells; type: functional, organism-based; settings: Human immunodeficiency virus 1, MT2
[2] = test system: Human immunodeficiency virus 1; test: Antiviral activity against NNRTI-resistant HIV1 harboring reverse transcriptase K103N mutant infected in human MT2 cells; type: functional, organism-based; settings: Human immunodeficiency virus 1, MT2
[3] = test system: Human immunodeficiency virus 1; test: Antiviral activity against wild type HIV1 infected in human MT2 cells; type: functional, organism-based; settings: Human immunodeficiency virus 1, MT2
Albumin = Albumin (Homo sapiens, UniProt P02768); test: Binding affinity to human serum albumin; type: ADME; settings: read-out: PB (converted)
Sequence of Albumin (P02768 whole entry): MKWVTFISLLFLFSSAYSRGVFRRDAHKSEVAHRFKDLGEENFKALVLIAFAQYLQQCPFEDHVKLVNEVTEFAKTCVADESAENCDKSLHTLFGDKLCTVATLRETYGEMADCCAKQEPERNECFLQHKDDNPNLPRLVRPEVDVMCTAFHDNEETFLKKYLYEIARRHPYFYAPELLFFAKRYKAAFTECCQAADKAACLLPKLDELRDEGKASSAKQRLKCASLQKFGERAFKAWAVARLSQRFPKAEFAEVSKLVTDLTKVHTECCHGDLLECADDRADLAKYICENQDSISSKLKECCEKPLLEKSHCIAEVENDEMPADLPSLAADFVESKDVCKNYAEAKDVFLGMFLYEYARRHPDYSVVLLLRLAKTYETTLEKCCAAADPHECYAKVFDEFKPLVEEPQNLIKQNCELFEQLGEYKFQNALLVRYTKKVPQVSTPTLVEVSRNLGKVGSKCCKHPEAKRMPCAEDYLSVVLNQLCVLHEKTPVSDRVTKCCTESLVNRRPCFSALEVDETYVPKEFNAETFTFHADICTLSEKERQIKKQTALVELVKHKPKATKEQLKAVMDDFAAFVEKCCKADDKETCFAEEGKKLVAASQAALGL

Canis familiaris = test: Toxicity in Beagle dog assessed as emesis at greater than 5 mg/kg, po dosed as suspension; type: organism-based, Canis lupus familiaris; parameters: dose 5 mg/kg, route oral; settings: in vivo
[4] = Aqueous solubility in 50 mM phosphate buffer; type: physicochemical
[5] = AUC ((0 to infinity)) in Beagle dog at 5 mg/kg, po dosed as suspension; type: ADME, organism-based, Canis lupus familiaris; parameters: time infinity, dose 5 mg/kg, route oral; settings: plasma
[6] = Oral bioavailability in Beagle dog at 5 mg/kg, po dosed as suspension; type: ADME, organism-based, Canis lupus familiaris; settings: in vivo
[7] = Half life in Beagle dog at 0.5 mg/kg, iv or. 5 mg/kg, po; type: ADME, organism-based, Canis lupus familiaris; settings: in vivo
[8] = Volume of distribution at steady state in Beagle dog at 0.5 mg/kg, iv or. 5 mg/kg, po; type: ADME, organism-based, Canis lupus familiaris; settings: in vivo, read-out: Vdss
[9] = Oral bioavailability in Beagle dog at 0.5 mg/kg; type: ADME, organism-based, Canis lupus familiaris; settings: in vivo
[10] = test system: Human immunodeficiency virus 1; test: Ratio of EC50 for wild type HIV1 in absence of 50% human serum to EC50 for wild type HIV1 in presence of 50% human serum; type: functional
[11] = test system: Human immunodeficiency virus 1; test: Ratio of EC50 for HIV1 harboring reverse transcriptase Y181C mutant in absence of 50% human serum to EC50 for HIV1 harboring reverse transcriptase Y181C mutant in presence of 50% human serum; type: functional
[12] = AUC ((0 to infinity)) in Beagle dog at 5 mg/kg, po dosed as Tablet formulation; type: ADME, organism-based, Canis lupus familiaris; parameters: time infinity, dose 5 mg/kg, route oral; settings: plasma
[13] = Oral bioavailability in Beagle dog at 5 mg/kg, po dosed as Tablet formulation; type: ADME, organism-based, Canis lupus familiaris; settings: in vivo
[14] = test system: Human immunodeficiency virus 1; test: Ratio of EC50 for HIV1 harboring reverse transcriptase K103N mutant in absence of 50% human serum to EC50 for HIV1 harboring reverse transcriptase K103N mutant in presence of 50% human serum; type: functional
[15] = Oral bioavailability in Beagle dog at 4 mg/kg; type: ADME, organism-based, Canis lupus familiaris; settings: in vivo
[16] = Oral bioavailability in Beagle dog at 2 mg/kg; type: ADME, organism-based, Canis lupus familiaris; settings: in vivo

Structure (SMILES)	EC50 [1] [nM]	EC50 [2] [nM]	EC50 [3] [nM]	fraction unbound (Albumin)	half-life [7] [h]	Vd [8] [L/kg]	also measured
CCn1c(C(F)(F)c2cc(C)cc(C#N)c2)c(C(C)C)c(=O)[nH]c1=O	4.3	9	4.2	0.013			
O=C1Nc2ccc(Cl)cc2[C@@](C#CC2CC2)(C(F)(F)F)O1 [EFAVIRENZ]				0.001			
CCn1c(C(=O)c2cc(C)cc(C#N)c2)c(C(C)C)c(=O)n(COP(=O)(O)O)c1=O							Activity (Canis familiaris): Toxic; solubility [4]: 12000 µg/mL (≈ 27600 µM); AUC(0-inf) [5]: 18.8 µM·h; bioavailability [6]: 75.2%
Cc1cc(C#N)cc(C(=O)c2[nH]c(=O)[nH]c(=O)c2C(C)C)c1	> 1	> 1	> 500		6.4	0.45	
CCn1c(Oc2cc(C)cc(C#N)c2)c(C(C)C)c(=O)[nH]c1=O	2.6	> 14	35	0.04			
CCn1c(C(=O)c2cc(C)cc(C#N)c2)c(C(C)C)c(=O)[nH]c1=O	9.6	6.4	6.1	0.166	6.5	2.25	bioavailability [9]: 69%; solubility [4]: 11 µg/mL (≈ 33.8 µM); Ratio EC50 [10]: 2.7; Ratio EC50 [11]: 2.7; AUC(0-inf) [5]: 13.1 µM·h; AUC(0-inf) [12]: 13.5 µM·h; bioavailability [6]: 35.8%; bioavailability [13]: 45.1%; Ratio EC50 [14]: 2.7
Cc1cc(C#N)cc(C)c1Oc1nc(Nc2ccc(C#N)cc2)nc(N)c1Br [ETRAVIRINE]				0.002	8.87	1.6	bioavailability [15]: 13%
CCc1c(C(=O)c2cc(C)cc(C#N)c2)n(CC)c(=O)[nH]c1=O	> 43	> 43	11.7	0.149	1.42	1.53	
CCCCn1c(C(=O)c2cc(C)cc(C#N)c2)c(C(C)C)c(=O)[nH]c1=O	12	10	3	0.001	6.1	2.23	bioavailability [16]: 28%
CCn1c(C(=O)c2cc(C)cc(C#N)c2)c(C(C)C)c(=O)n(COC(=O)OC(C)C)c1=O							solubility [4]: < 1 µg/mL; AUC(0-inf) [5]: 54 µM·h; AUC(0-inf) [12]: 4.54 µM·h; bioavailability [6]: 108%; bioavailability [13]: 24%
CCn1c(C(F)c2cc(C)cc(C#N)c2)c(C(C)C)c(=O)[nH]c1=O (stereo not drawn)	8.1	> 24	21	0.02			
CCn1c(C(=O)c2cc(C)cc(C#N)c2)c(C(C)C)c(=O)n(COC(C)=O)c1=O							solubility [4]: 2.2 µg/mL (≈ 5.54 µM); AUC(0-inf) [5]: 14.7 µM·h; AUC(0-inf) [12]: 8.78 µM·h; bioavailability [6]: 48.9%; bioavailability [13]: 35.3%
CCn1c(C(=O)c2cc(C)cc(C#N)c2)c(C(C)(C)C)c(=O)[nH]c1=O	> 50	2.7	10	0.007			
CCCn1c(C(=O)c2cc(C)cc(C#N)c2)c(C(C)C)c(=O)[nH]c1=O	> 58	> 36	3.6	0.009	1.67	1.4	
Cc1cc(C#N)cc(C(=O)c2c(C(C)C)c(=O)[nH]c(=O)n2C)c1	> 2.7	> 2.7	187	0.141			
